biological target: PI 3-kinase alpha (Homo sapiens (Human), UniProt P42336); assay: Kinase Glo Luminescent Kinase Assay (Assay A); type: biochemical; conditions: 1 μM ATP, read-out: Assay A PI3Kα IC50
Description: Kinase Glo Luminescent Kinase Assay (Kglo) for PI 3-Kinase Alpha (A), Pb 3-Kinase Beta (B), Vps34 (C), PI 4-Kinase Beta (D)
The luminescence-based ATP detection reagent KinaseGlo was obtained from Promega, (Cat. No. V6714, Lot No. 236161) through Catalys, Wallisellen, Switzerland. L-alpha-phosphatidylinositol (PI, liver, bovine) was obtained from Avanti Polar Lipid (Cat. No. 840042C, Lot#LPI-274), Phosphatidylinositol-4,5-bisphosphate (PIP(4,5)2) was also obtained from Avanti Polar Lipid (Cat. No. 840046X). L-α-Phosphatidylserine (PS) was obtained from Avanti Polar Lipid (Cat. No. 840032C), n-Octylglucoside from Avanti Polar Lipid (Cat. No. 10634425001). Luminescence is a well established readout to determine ATP concentrations and can thus be used to follow the activity of many kinases regardless of their substrate. The Kinase Glo Luminescent Kinase Assay (Promega, Madison/WI, USA) is a homogeneous HTS method of measuring kinase activity by quantifying the amount of ATP remaining in solution following a kinase reaction.
50 nL of compound dilutions were dispensed onto black 384-well low volume Non Binding Styrene (NBS) plates (Costar Cat. No. NBS#3676). L-α-phosphatidylinositol (PI), provided as 10 mg/ml solution in methanol, was transferred into a glass tube and dried under a nitrogen beam. It was then resuspended in 3% OctylGlucoside (1-O-n-octyl-beta-D-glucopyranoside) by vortexing and stored at 4° C. 5 μL of a mix of PI/OctylGlucoside with the PI 3-kinase alpha and PI 3-kinase beta subtypes, or Vps34 or PI 4-kinase beta were added. Kinase reactions were started by the addition of 5 μl of an ATP-mix containing in a final volume 10 μL 10 mM TRIS-HCl pH 7.5, 3 mM MgCl2, 50 mM NaCl, 0.05% CHAPS, 1 mM DTT and 1 μM ATP at room temperature. Reactions were stopped with 10 μl of KinaseGlo and plates were read 10 mins later in a Synergy2 reader using an integration time of 0.1 seconds per well. 2.5 μM of NVP-BGT226 (1-(3-(trifluoromethyl)-4-(piperazin-1-yl)phenyl)-8-(6-methoxypyridin-3-yl)-3-methyl-1H-imidazo[4,5-c]quinolin-2(3H)-one) was added to the assay plates to generate the 100% inhibition of the kinase reaction, and the 0% inhibition was given by the solvent vehicle (90% DMSO in water). (1-(3-(trifluoromethyl)-4-(piperazin-1-yl)phenyl)-8-(6-methoxypyridin-3-yl)-3-methyl-1H-imidazo[4,5-c]quinolin-2(3H)-one) was used as a reference compound and included in all assay plates in the form of 16 dilution points in duplicate.
IC50 values of the percentage inhibition of each compound at 8 concentrations (10, 3.0, 1.0, 0.3, 0.1, 0.030, 0.010 and 0.003 μM) n=2 were derived by fitting a sigmoidal dose-response curve to a plot of assay readout over inhibitor concentration as described. All fits were performed with the program XLfit4 (ID Business Solutions, Guildford, UK).

Sequence of PI 3-kinase alpha (P42336 21-1068): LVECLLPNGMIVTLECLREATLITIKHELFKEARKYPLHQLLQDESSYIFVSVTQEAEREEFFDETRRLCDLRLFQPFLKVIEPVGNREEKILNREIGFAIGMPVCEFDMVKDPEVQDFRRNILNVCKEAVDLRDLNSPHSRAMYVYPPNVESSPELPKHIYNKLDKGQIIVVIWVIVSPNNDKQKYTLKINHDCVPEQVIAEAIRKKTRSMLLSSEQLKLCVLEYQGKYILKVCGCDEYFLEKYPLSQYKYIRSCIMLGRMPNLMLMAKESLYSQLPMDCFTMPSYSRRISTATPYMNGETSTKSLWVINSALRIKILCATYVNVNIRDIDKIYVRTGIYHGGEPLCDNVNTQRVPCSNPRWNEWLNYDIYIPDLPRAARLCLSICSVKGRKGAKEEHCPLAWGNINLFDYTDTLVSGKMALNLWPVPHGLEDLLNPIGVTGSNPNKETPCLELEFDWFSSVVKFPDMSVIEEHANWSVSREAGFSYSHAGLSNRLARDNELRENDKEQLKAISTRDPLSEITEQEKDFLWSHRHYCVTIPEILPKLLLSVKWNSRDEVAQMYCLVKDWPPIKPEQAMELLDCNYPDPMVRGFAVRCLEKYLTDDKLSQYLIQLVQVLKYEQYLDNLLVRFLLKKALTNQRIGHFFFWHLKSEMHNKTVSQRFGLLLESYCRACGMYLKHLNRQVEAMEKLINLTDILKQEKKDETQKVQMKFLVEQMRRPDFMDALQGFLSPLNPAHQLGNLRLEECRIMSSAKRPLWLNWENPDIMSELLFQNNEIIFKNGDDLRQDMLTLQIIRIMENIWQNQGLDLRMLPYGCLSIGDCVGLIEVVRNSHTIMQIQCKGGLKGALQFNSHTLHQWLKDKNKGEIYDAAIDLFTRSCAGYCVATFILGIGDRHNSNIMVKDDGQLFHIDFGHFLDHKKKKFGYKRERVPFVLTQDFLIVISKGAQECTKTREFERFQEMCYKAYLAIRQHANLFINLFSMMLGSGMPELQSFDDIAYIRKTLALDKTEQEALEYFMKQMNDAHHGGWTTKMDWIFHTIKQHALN

Compound | IC50 [nM]
Cc1ccc(S(=O)(=O)NCCC(C)(C)O)cc1-c1cncc(-c2cn(CCN3CCOCC3)nc2C)n1 [Example 10, N-(3-Hydroxy-3-methyl-butyl)-4-methyl-3-{6-[3-methyl-1-(2-morpholin-4-yl-ethyl)-1H-pyrazol-4-yl]-pyrazin-2-yl}-benzenesulfonamide] | 70
Cc1ccc(S(=O)(=O)NCC(C)(C)O)cc1-c1cncc(-c2cn(C)nc2C)n1 [Example 2, 3-[6-(1,3-Dimethyl-1H-pyrazol-4-yl)-pyrazin-2-yl]-N-(2-hydroxy-2-methyl-propyl)-4-methyl-benzenesulfonamide] | 50
Cc1ncc(-c2cncc(-c3cc(S(=O)(=O)NCCCO)ccc3C)n2)s1 [Example 1, N-(3-Hydroxy-propyl)-4-methyl-3-[6-(2-methyl-thiazol-5-yl)-pyrazin-2-yl]-benzenesulfonamide] | 190
Cc1ccc(S(=O)(=O)NCC2(C)COC2)cc1-c1cncc(-c2cn(C)nc2C)n1 [Example 4, Trans 3-[6-(1,3-Dimethyl-1H-pyrazol-4-yl)-pyrazin-2-yl]-4-methyl-N-(3-methyl-oxetan-3-ylmethyl)-benzenesulfonamide] | 60
Cc1ccc(S(=O)(=O)NCCC(C)(C)O)cc1-c1cncc(-c2cnn(CCN3CCOCC3)c2)n1 [Example 9, N-(3-Hydroxy-3-methyl-butyl)-4-methyl-3-{6-[1-(2-morpholin-4-yl-ethyl)-1H-pyrazol-4-yl]-pyrazin-2-yl}-benzenesulfonamide] | 260
Cc1ccc(S(=O)(=O)NCC(C)(C)CO)cc1-c1cncc(-c2cn(C)nc2C)n1 [Example 8, 3-[6-(1,3-Dimethyl-1H-pyrazol-4-yl)-pyrazin-2-yl]-N-(3-hydroxy-2,2-dimethyl-propyl)-4-methyl-benzenesulfonamide] | 60
Cc1ncc(-c2cncc(-c3cc(S(=O)(=O)N[C@H]4CC[C@H](O)CC4)ccc3C)n2)s1 [Example 5, Trans N-(4-Hydroxycyclohexyl)-4-methyl-3-(6-(2-methylthiazol-5-yl)pyrazin-2-yl)benzenesulfonamide] | 150
Cc1ccc(S(=O)(=O)N[C@H]2CC[C@H](O)CC2)cc1-c1cncc(-c2cccnc2)n1 [Example 11, Trans N-(4-Hydroxy-cyclohexyl)-4-methyl-3-(6-pyridin-3-yl-pyrazin-2-yl)-benzenesulfonamide] | 400
Cc1ccc(S(=O)(=O)NCCC(C)(C)O)cc1-c1cncc(-c2cn(C)nc2C)n1 [Example 3, 3-[6-(1,3-Dimethyl-1H-pyrazol-4-yl)-pyrazin-2-yl]-N-(3-hydroxy-3-methyl-butyl)-4-methyl-benzenesulfonamide] | 80

Reference: patent US9862711B2, “Pyrazine derivatives as phosphatidylinositol 3-kinase inhibitors” (NOVARTIS AG, priority 2014, dated 2018)
